Data as given in patent US20040242476A1, “Male contraceptives” (The Population Council, Inc, priority 2001, published 2004).

Columns and labels:
[1] = system: inter-Sertoli TJ-permeability barrier; assay: Transepithelial electrical resistance (TER) across Sertoli cell epithelia; assay type: cell-based, rat
Procedure: Preparation of Sertoli cell cultures. Primary Sertoli cells were isolated from 20-day-old Sprague-Dawley rat testes as previously described (Cheng et al., 1986). For low cell density cultures, Sertoli cells were plated at 5×10^4 cells/cm^2 in 100-mm Petri dishes [approximately 4.5×10^6 cells/100-mm dish/9 ml Ham's F12 Nutrient Mixture/Dulbecco's Modified Eagle's Medium (F12/DMEM, 1:1, vol/vol, Life Technologies, Inc.); F12/DMEM were supplemented with 15 mM HEPES, 1.2 g/L sodium bicarbonate, 10 μg/ml bovine insulin, 5 μg/ml human transferrin, 2.5 ng/ml EGF, 20 mg/L gentamicin and 10 μg/ml bacitracin. Sertoli cells cultured under low cell density formed monolayer epithelia without the assembly of inter-Sertoli TJs when monitored by TER measurement (Grima et al., 1998). However, both adherens junctions (AJs) and gap junctions (GJs) were formed (Chung et al., 1999). For high cell density cultures, Sertoli cells were plated on Matrigel™ (Collaborative Biochemical Products, Belford, Mass.)-coated (diluted 1:7 with F12/DMEM, vol/vol) 24-well dishes (effective surface area, approximately 1.88 cm^2, with 2 ml F12/DMEM per well) at a density of 0.6-3×10^6 cells/cm^2 as previously described (Grima et al., 1998) to allow formation of TJs, AJs and GJs, mimicking Sertoli cells found in vivo when assessed by various criteria (Grima et al., 1992). Cell cultures were incubated in a humidified atmosphere of 95% air and 5% CO2 (vol/vol) at 35° C. and TER readings were recorded 24 hr later and designated as cultures at day 1.
Assessing the integrity of the inter-Sertoli TJ-permeability barrier by measuring the transepithelial electrical resistance (TER) across Sertoli cell epithelia To assess the effects of occludin peptide on the assembly of inter-Sertoli TJs, Sertoli cells isolated from 20-day-old rat testes were cultured at 1.2×10^6 cells/cm^2 to allow the assembly of inter-Sertoli TJs, and the TER, which is a quantitative measurement of TJ integrity, across the Sertoli cell epithelia was quantified as previously described (Wong et al., 2000; Grima et al. 1998). Cells were plated on Matrigel™ (1:7)-coated HA filters in the apical chamber (Millipore, Bedford, Mass.) (25, 28). Great care was taken so that air bubbles were not trapped between Sertoli cell aggregates, which is the major obstacle to obtain steady TER across the Sertoli cell epithelia since air bubbles create physical pores between adjacent Sertoli cells. TER across the Sertoli cell epithelia at specific time points was determined by a Millicell electrical resistance system as described (Grima et al., 1998; Cheng and Chung, 2001). The resistance in ohm was multiplied by the effective surface area of the bicameral unit (approximately 0.6 cm^2) to yield the area resistance (ohm.cm^2). The net value of electrical resistance was then computed by substracting the background, which was measured on the Matrigel-coated cell-free chambers, from values of Sertoli cell-plated chambers. To minimize temperature-induced fluctuations during TER measurement, cultures were stabilized at room temperature for 20-30 minutes prior to recording TER across the Sertoli cell epithelia. Synthetic occludin peptide at 0.2-4 μM was included in the basal (0.5 ml F12/DMEM containing 0.03% DMSO, vol/vol, DMSO was used to solubilize the peptide in medium) and apical (0.5 ml F12/DME containing 0.03% DMSO, vol/vol) chambers of the bicameral units 24 hours after freshly isolated Sertoli cells were plated onto Matrigel-coated units (day 1). […]

Sertoli cells = assay: Trypan blue dye-exclusion cell viability test; assay type: cell-based, rat; details: peptide-treated cultures (data not shown)
[2] = system: spermatogenesis in adult rat testis; assay: Intratesticular injection: testicular weight and histological analysis of the testis; assay type: in vivo
Procedure: Intratesticular injection of occludin peptide and histological analysis of the testis. To assess the in vivo effects of the occludin peptide on spermatogenesis, peptide was administered to testes of adult rats by direct intratesticular injection as follows. Peptide was suspended in 0.9% sterile saline, sterilized by exposure to UV for 5 minutes. […] First, UV treated peptide retained the same retention time on reverse-phase HPLC using a Vydac C18 column (4.6×250 mm, i.d.) (Cheng et al., 1998; Cheng et al., 1989) when compared to peptide prior to the UV treatment. Second, the primary sequence of the UV-trated peptide remain unaltered when direct protein microsequencing was performed as described (Mruk and Cheng, 1990; Cheng et al., 1998; Cheng et al., 1989). Adult rats weighing between 250 and 300 g body weight were anesthetized with Metofane® before treatment. Rats received either 300 μl of 0.9% sterile saline (vehicle control), no treatment (control), or 1.5-10 mg of occludin peptide suspended in 300 μl of 0.9% sterile saline intratesticularly. The right testis of an animal received the peptide or vehicle and the left testis of the same animal was not treated and was used as a control. Peptide or vehicle was administered at 3 sites/testis with about 100 μl sample per site essentially as previously described (Grima et al., 1998; Eng et al., 1994). In another control group, rats were injected with a synthetic 22-amino acid peptide of NH2—[…]—COOH based on a known Sertoli cell protein, rat myotubularin (rMTM) (Li et al., 2000; Li et al., 2001), which had no sequence homology with occludin. Three rats were used in each treatment group and rats were sacrificed by CO2 asphyxiation at specific time points. Testes were removed immediately and fixed in 10% neutral buffered formalin. Testes were embedded in paraffin, and dehydrated in graded ethanol. For morphological analysis, 5 μm sections were cut and stained with hematoxylin and eosin. About 50 sections were examined at different sites for each testis using an Olympus BX40 microscope (Tokyo, Japan), interfaced to an Olympus PM-30 Exposure Control Unit.
Following HPLC purification, occludin or myotubularin peptide was suspended in 0.9% sterile saline and sterilized under UV for 5 minutes. Each rat in the experimental group received an intratesticular injection of 300 μl of saline containing either 0.15 mg or 1.5 mg of the corresponding purified peptide. The peptide suspension was distributed in each testis at 3 sites (approximately […] per site) as described in Materials and Methods and detailed elsewhere (Grima et al., 1992; Eng et al., 1994). […] FIGS. 6D-F are another control set of testes where rats received an intratesticular injection of the myotubularin peptide at 10 (FIG. 6D), 23 (FIG. 6E), and 40 days (FIG. 6F) post-treatment.

[3] = system: blood-testis barrier (BTB); assay: Blood-testis barrier integrity by micropuncture, [125I]-BSA in STF and RTF; assay type: in vivo, rat; details: for effect on BTB integrity: intratesticular injection 1.5 mg/testis
Procedure: Assessing the occludin-peptide induced disruption of the blood-testis barrier (BTB) by micropuncture techniques.
Briefly, 5 μg of BSA (Sigma, RIA grade, Mr 68 kDa) was radioiodinated by Iodogen (Fraker et al., 1978) using 1 mCi of [^125I]-sodium iodide (Amersham Pharmacia Biotech) as described (Cheng et al., 1983).
Detection of [^125]-BSA in seminiferous tubular fluid (STF) and rete testis fluid (RTF). 2, 4, 6, and 12-week after an intratesticular administration of 1.5 mg of either occludin or myotubularin peptide/testis as described above (administered at 3 sites to the right testis) where the left testis of the same animal was used as a control. Rats (n=4-6 rats per time point, approximately 250 gm b.w. at the time of peptide treatment) were anesthetized with ketamine HCl (Fort Dodge Laboratories, Inc., Fort Dodge Iowa) at 60 mg/kg b.w. Micropuncture was performed essentially as described (Turner et al., 1984; Stahler et al., 1991). Briefly, testes were exposed through an abdominal incision, and the efferent ducts were ligated with surgical silk thread. Testes were then returned to the scrotum, wound cleansed with 70% ethanol, surgically closed and animals were allowed to recover. Twenty-four hours after efferent duct ligation, rats were anesthetized by ketamine HCl, bilateral nephrectomy was performed to prevent renal excretion of [^125I]-BSA, and approximately 6×10^6 cpm of [^125I]-BSA was infused into the rat via jugular vein. Two hours after infusion, testes were removed, RTF and STF were collected as described (Turner et al, 1984; Stahler et al., 1991) for radioactivity determination in a γ-counter. The left testis from the same animal without receiving either the occludin or myotubularin peptide served as a control, and both STF and RTF were also collected for radioactivity determination to assess the integrity of the BTB.

[4] = Stability of peptide to UV sterilization (HPLC retention, microsequencing); assay type: physicochemical; details: UV 5 minutes, suspension in 0.9% saline
Procedure: Intratesticular injection of occludin peptide and histological analysis of the testis. To assess the in vivo effects of the occludin peptide on spermatogenesis, peptide was administered to testes of adult rats by direct intratesticular injection as follows. Peptide was suspended in 0.9% sterile saline, sterilized by exposure to UV for 5 minutes. […] First, UV treated peptide retained the same retention time on reverse-phase HPLC using a Vydac C18 column (4.6×250 mm, i.d.) (Cheng et al., 1998; Cheng et al., 1989) when compared to peptide prior to the UV treatment. Second, the primary sequence of the UV-trated peptide remain unaltered when direct protein microsequencing was performed as described (Mruk and Cheng, 1990; Cheng et al., 1998; Cheng et al., 1989). Adult rats weighing between 250 and 300 g body weight were anesthetized with Metofane® before treatment. Rats received either 300 μl of 0.9% sterile saline (vehicle control), no treatment (control), or 1.5-10 mg of occludin peptide suspended in 300 μl of 0.9% sterile saline intratesticularly. The right testis of an animal received the peptide or vehicle and the left testis of the same animal was not treated and was used as a control. Peptide or vehicle was administered at 3 sites/testis with about 100 μl sample per site essentially as previously described (Grima et al., 1998; Eng et al., 1994). […]

[5] = 1.5 mg/testis, 2, 4, 6 and 12 weeks, vs rats without peptide

appearance of the testis and the epididymis ([2]; after intratesticular injection)	effect of UV treatment on peptide structure [4]	Substance	decline in TER compared to untreated controls ([1]; 4 μM, days 4-5)	toxicity to Sertoli cells ([1]; concluded from reversibility after peptide removal)	change in TER across Sertoli cell epithelia ([1]; peptide 0.2-4 μM added 24 hours after isolation, 1.2×10^6 cells/cm^2 (FIG. 4A))	time until TER reading indistinguishable from controls after peptide removal (TJ barrier reassembly) ([1]; peptide removed on day 5 by two washes (FIG. 4B))	cell viability versus control cultures (Sertoli cells)	reduction of seminiferous tubular diameter ([2]; 27 days, compared to control, vehicle or myotubularin peptide testes)	time for almost full recovery of testes ([2]; 68 days versus 27 days post-treatment)	germ cell repopulation ([2]; after 27 days post treatment)	elongated spermatids in seminiferous epithelium ([2]; between 8 and 16 days after treatment)	germ cells in epithelium, virtually all tubules examined ([2]; by 27 days after intratesticular injection)	morphology of tubules ([2]; by 47 days post treatment)	morphology of the seminiferous epithelium ([2]; by 68 days post treatment)	testicular weight ([2]; within 2 weeks after intratesticular injection of 0.15 mg or 1.5 mg, vs no treatment, vehicle or myotubularin peptide (FIG. 5))	effect on BTB integrity [3]	effects to perturb the inter-Sertoli TJ barrier ([1]; 4 μM (data not shown))	radioactivity detected in RTF [3, 5]	radioactivity detected in STF [3, 5]
appeared normal	did not alter its structure	H-GSQIYTICSQFYTPGGTGLYVD-OH [occludin peptide]	approximately 50%	non-toxic	dose-dependent decline in TER	3 to 4 days	no apparent differences	20-30%	≤ 40 days	began to repopulate in the epithelium	began to deplete from the epithelium	Massive depletion of germ cells	spermatocytes were clearly visible in all the tubules examined	indistinguishable from control rats	reduction in testicular weight	disruption of the BTB			
		NH2—TKVNERYELCDTYPALLAVPAN—COOH (H-TKVNERYELCDTYPALLAVPAN-OH) [myotubularin peptide]														failed to induce disruption of the BTB	no apparent effects	indistinguishable from control rats	indistinguishable from control rats
